Data: ChEMBL document CHEMBL6087416, “Discovery of novel fused-heterocycle-bearing diarypyrimidine derivatives as HIV-1 potent NNRTIs targeting tolerant region I for enhanced antiviral activity and resistance profile” (Eur J Med Chem, 2025)

What was measured:
[1] = Cytotoxicity against human MT4 cells assessed as reduction in cell viability measured after 5 days by MTT assay; type: toxicity, cell-based; conditions: time 5 day
[2] = test system: Human immunodeficiency virus 1; test: microbe, parasite or virus in culture; conditions: Human immunodeficiency virus 1, IIIB, MT4, 120 h
Description: Antiviral activity against wild type HIV-1 IIIB infected in human MT4 cells assessed as protection against virus-induced cytopathic effect incubated for 5 days by MTT assay

[3] = test system: Human immunodeficiency virus 1; type: functional, organism-based; conditions: Human immunodeficiency virus 1, RES056, MT4, 120 h
[4] = test system: Human immunodeficiency virus 2; test: Antiviral activity against HIV-2 ROD infected in human MT4 cells assessed as protection against virus-induced cytopathic effect incubated for 5 days by MTT assay; type: functional, organism-based; conditions: Human immunodeficiency virus 2, ROD, MT4, 120 h
in vitro [5] = conditions: human, MT4 cells
Description: Selectivity index, ratio of CC50 for human MT4 cells to EC50 for wild type HIV-1 IIIB infected in human MT4 cells

[6] = molecular target: Human immunodeficiency virus type 1 reverse transcriptase (Human immunodeficiency virus 1, UniProt Q72547); test: Inhibition of wild type HIV-1 Reverse transcriptase incubated for 1 hrs by ELISA analysis
in vitro [7] = conditions: human, MT4 cells; remark: listed apart in the source
Description: Selectivity index, ratio of CC50 for human MT4 cells to EC50 for HIV-1 RES056 harboring RT K103N/Y181C mutant infected in human MT4 cells

[8] = test system: Human immunodeficiency virus 1; type: functional, organism-based; conditions: Human immunodeficiency virus 1, MT4, 120 h
[9] = test system: Human immunodeficiency virus 1; type: functional, organism-based; conditions: Human immunodeficiency virus 1, MT4, 120 h; remark: listed apart in the source
[10] = test system: Human immunodeficiency virus 1; test: Antiviral activity against NNRTI-resistant HIV-1 harboring RT E138K mutant infected in human MT4 cells assessed as protection against virus-induced cytopathic effect incubated for 5 days by MTT assay; type: functional, organism-based; conditions: Human immunodeficiency virus 1, MT4, 120 h
[11] = test system: Human immunodeficiency virus 1; test: Antiviral activity against NNRTI-resistant HIV-1 harboring RT L100I mutant infected in human MT4 cells assessed as protection against virus-induced cytopathic effect incubated for 5 days by MTT assay; type: functional, organism-based; conditions: Human immunodeficiency virus 1, MT4, 120 h
[12] = test system: Human immunodeficiency virus 1; test: Antiviral activity against NNRTI-resistant HIV-1 harboring RT K103N mutant infected in human MT4 cells assessed as protection against virus-induced cytopathic effect incubated for 5 days by MTT assay; type: functional, organism-based; conditions: Human immunodeficiency virus 1, MT4, 120 h
[13] = test system: Human immunodeficiency virus 1; type: functional, organism-based; conditions: Human immunodeficiency virus 1, MT4, 120 h; remark: listed apart in the source

Structure (SMILES)	CC50 at 120 h [1]	EC50 [2]	EC50 [3]	EC50 [4]	selectivity ratio (in vitro [5])	IC50 [6]	selectivity ratio (in vitro [7])	EC50 [8]	EC50 [9]	EC50 [10]	EC50 [11]	EC50 [12]	EC50 [13]
Cc1cc(/C=C/C#N)cc(C)c1Oc1ccnc(Nc2ccc3c(c2)CCN(CCS(C)(=O)=O)C3)n1	4770 nM	19 nM	> 4770 nM	> 4770 nM	256	170 nM	–	–	–	–	–	–	–
Cc1cc(/C=C/C#N)cc(C)c1Oc1ccnc(Nc2ccc3c(c2)C(=O)NC3)n1	103000 nM	6 nM	> 103000 nM	> 103000 nM	16000	58 nM	–	–	–	–	–	–	–
Cc1cc(/C=C/C#N)cc(C)c1Oc1ccnc(Nc2ccc3oncc3c2)n1	17600 nM	7 nM	4150 nM	> 17600 nM	2640	65 nM	4	–	–	–	–	–	–
Cc1cc(/C=C/C#N)cc(C)c1Oc1ccnc(Nc2ccc(N3CCN(S(C)(=O)=O)CC3)c(C#N)c2)n1	10200 nM	1 nM	93 nM	> 10200 nM	7170	–	110	6 nM	10 nM	6 nM	4 nM	2 nM	740 nM
Cc1cc(/C=C/C#N)cc(C)c1Oc1ccnc(Nc2ccc3c(c2)CCN(C(=O)CS(C)(=O)=O)C3)n1	5950 nM	9 nM	> 5950 nM	> 5950 nM	642	120 nM	–	–	–	–	–	–	–
Cc1cc(/C=C/C#N)cc(C)c1Oc1ccnc(Nc2ccc3c(c2)CN(CC#N)CC3)n1	5850 nM	37 nM	> 5850 nM	> 5850 nM	159	250 nM	–	–	–	–	–	–	–
Cc1cc(/C=C/C#N)cc(C)c1Oc1ccnc(Nc2ccc3c(c2)CN(C(=O)CS(C)(=O)=O)CC3)n1	8640 nM	17 nM	> 8640 nM	> 8640 nM	524	230 nM	1	–	–	–	–	–	–
COP(=O)(OC)N1CCc2ccc(Nc3nccc(Oc4c(C)cc(/C=C/C#N)cc4C)n3)cc2C1	7010 nM	120 nM	> 7010 nM	> 7010 nM	58	630 nM	–	–	–	–	–	–	–
Cc1cc(/C=C/C#N)cc(C)c1Oc1ccnc(Nc2ccc3nc(C#N)sc3c2)n1	81600 nM	61 nM	> 81600 nM	> 81600 nM	1330	1130 nM	–	–	–	–	–	–	–
O=C1Nc2ccc(Cl)cc2[C@@](C#CC2CC2)(C(F)(F)F)O1 [EFAVIRENZ]	> 6340 nM	–	–	> 6340 nM	–	–	–	9 nM	–	9 nM	–	–	–
Cc1cc(/C=C/C#N)cc(C)c1Oc1ccnc(Nc2ccc3c(c2)CN(S(C)(=O)=O)CC3)n1	4950 nM	6 nM	> 4950 nM	> 4950 nM	791	78 nM	–	–	–	–	–	–	–
Cc1cc(/C=C/C#N)cc(C)c1Oc1ccnc(Nc2ccc3c(C)cc(=O)oc3c2)n1	> 47100 nM	18 nM	> 47100 nM	> 47100 nM	> 2590	78 nM	–	–	–	–	–	–	–
Cc1cc(/C=C/C#N)cc(C)c1Oc1ccnc(Nc2ccc3c(c2)NC(=O)C3)n1	> 50300 nM	2 nM	33700 nM	> 50300 nM	> 27600	53 nM	> 1	72 nM	14400 nM	46 nM	54 nM	4 nM	> 50300 nM
Cc1cc(/C=C/C#N)cc(C)c1Oc1ccnc(Nc2ccc3nccn3c2)n1	28700 nM	2 nM	1450 nM	> 28700 nM	14600	29 nM	20	210 nM	960 nM	58 nM	64 nM	8 nM	3910 nM
Cc1cc(/C=C/C#N)cc(C)c1Oc1ccnc(Nc2ccc3c(C(F)(F)F)cc(=O)oc3c2)n1	185000 nM	76 nM	> 185000 nM	> 185000 nM	2420	230 nM	–	–	–	–	–	–	–
Cc1cc(/C=C/C#N)cc(C)c1Oc1ccnc(Nc2ccc3c(c2)CN(S(N)(=O)=O)CC3)n1	11600 nM	16 nM	6470 nM	> 11600 nM	743	110 nM	2	–	–	–	–	–	–

Structure (SMILES)	CC50 at 120 h [1]	EC50 [2]	EC50 [3]	EC50 [4]	selectivity ratio (in vitro [5])	IC50 [6]	selectivity ratio (in vitro [7])	EC50 [8]	EC50 [9]	EC50 [10]	EC50 [11]	EC50 [12]	EC50 [13]
Cc1cc(/C=C/C#N)cc(C)c1Oc1ccnc(Nc2ccc3c(c2)COC3)n1	14000 nM	2 nM	1080 nM	> 14000 nM	7440	29 nM	573	99 nM	700 nM	39 nM	47 nM	6 nM	4900 nM
Cc1cc(/C=C/C#N)cc(C)c1Oc1ccnc(Nc2ccc3c(c2)CCN(S(C)(=O)=O)C3)n1	6630 nM	7 nM	> 6630 nM	> 6630 nM	970	100 nM	–	–	–	–	–	–	–
Cc1cc(/C=C/C#N)cc(C)c1Oc1ccnc(Nc2ccc3c(c2)C(=O)NCC3)n1	3190 nM	3 nM	1340 nM	> 3190 nM	1220	46 nM	2	44 nM	> 3190 nM	21 nM	14 nM	11 nM	> 3190 nM
Cc1cc(/C=C/C#N)cc(C)c1Oc1ccnc(Nc2ccc3c(c2)CCN(S(N)(=O)=O)C3)n1	6240 nM	8 nM	> 6240 nM	> 6240 nM	748	55 nM	–	–	–	–	–	–	–
Cc1nc2cc(Nc3nccc(Oc4c(C)cc(/C=C/C#N)cc4C)n3)ccc2o1	1000 nM	8 nM	> 1000 nM	> 1000 nM	129	53 nM	–	–	–	–	–	–	–
Cc1cc(/C=C/C#N)cc(C)c1Oc1ccnc(Nc2ccc3c(cnn3C)c2)n1	> 50400 nM	3 nM	> 50400 nM	> 50400 nM	> 18200	45 nM	–	180 nM	> 50400 nM	54 nM	92 nM	18 nM	> 50400 nM
Cc1cc(/C=C/C#N)cc(C)c1Oc1ccnc(Nc2ccc3cnsc3c2)n1	10100 nM	2 nM	450 nM	> 10100 nM	4140	19 nM	22	48 nM	500 nM	14 nM	14 nM	4 nM	990 nM
Cc1cc(/C=C/C#N)cc(C)c1Oc1ccnc(Nc2ccc3ncsc3c2)n1	46000 nM	9 nM	2870 nM	> 46000 nM	5140	70 nM	16	–	–	–	–	–	–
Cc1cc(/C=C/C#N)cc(C)c1Oc1ccnc(Nc2ccc3c(c2)OC(F)(F)O3)n1	19200 nM	20 nM	5310 nM	> 19200 nM	966	90 nM	4	–	–	–	–	–	–
Cc1cc(/C=C/C#N)cc(C)c1Oc1ccnc(Nc2ccc3sccc3c2)n1	1710 nM	8 nM	> 1710 nM	> 1710 nM	221	45 nM	–	–	–	–	–	–	–
Cc1nc2cc(Nc3nccc(Oc4c(C)cc(/C=C/C#N)cc4C)n3)ccc2s1	5310 nM	12 nM	> 5310 nM	> 5310 nM	431	77 nM	–	–	–	–	–	–	–
Cc1cc(/C=C/C#N)cc(C)c1Oc1ccnc(Nc2ccc3c(c2)CN(C)C3=O)n1	40400 nM	31 nM	> 40400 nM	> 40400 nM	1290	630 nM	–	–	–	–	–	–	–
Cc1cc(C#N)cc(C)c1Oc1nc(Nc2ccc(C#N)cc2)nc(N)c1Br [ETRAVIRINE]	> 4590 nM	–	32 nM	> 4590 nM	–	–	–	–	17 nM	–	–	–	31 nM
Cc1ccnc2c1NC(=O)c1cccnc1N2C1CC1 [NEVIRAPINE]	> 9510 nM	130 nM	> 9510 nM	> 9510 nM	–	–	–	5830 nM	> 9510 nM	–	–	5220 nM	> 9510 nM
Cc1cc(/C=C/C#N)cc(C)c1Oc1ccnc(Nc2ccc3c(c2)OCCO3)n1	12100 nM	14 nM	> 12100 nM	> 12100 nM	855	50 nM	–	–	–	–	–	–	–
COP(=O)(OC)N1CCc2cc(Nc3nccc(Oc4c(C)cc(/C=C/C#N)cc4C)n3)ccc2C1	4180 nM	8 nM	> 4180 nM	> 4180 nM	515	170 nM	–	–	–	–	–	–	–
